From EP1066315B1 (University of Dundee, priority 1998, dated 2008)
“Also recorded” adds a separate entry of the source. Residues, ends and D or L forms follow the SMILES beside them. *: point of attachment. Fmoc = O=C(OCC1c2ccccc2-c2ccccc21)*

What was measured:
[1] = target: T1, TTCF processing activity (Homo sapiens, UniProt Q99538); assay: TTCF processing by Mono-S fractions of B cell lysosome extract; type: biochemical; conditions: 10 µg TTCF, 4 hours at 37°C, Fig 2b
T1 construct: We next partially purified the TTCF processing activity from a crude B cell lysosome fraction; endogenous in cells; host or cells: human B cell line EDR; membrane pellet solubilised in citrate/CHAPS, Mono-S cation-exchange fractions
T1 sequence (Q99538 26-323 limits assumed): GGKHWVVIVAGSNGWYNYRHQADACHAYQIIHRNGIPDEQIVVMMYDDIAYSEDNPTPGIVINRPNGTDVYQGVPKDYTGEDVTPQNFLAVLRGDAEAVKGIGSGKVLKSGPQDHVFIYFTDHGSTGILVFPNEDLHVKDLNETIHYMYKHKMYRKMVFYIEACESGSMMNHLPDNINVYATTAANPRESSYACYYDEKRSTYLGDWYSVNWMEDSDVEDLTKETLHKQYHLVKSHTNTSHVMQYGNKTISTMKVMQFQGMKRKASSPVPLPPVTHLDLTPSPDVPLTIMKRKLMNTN
Description: (§1) The invention will now be described by reference to the following Examples and Figures wherein • Figure 1: Processing of TTCF by a leupeptin-insensitive cysteine endopeptidase activity. (a) TTCF was digested in vitro in the presence of disrupted lysosomes (1-2 µg) in the presence or absence of iodoacetamide (1 mM), leupeptin, E64 or pepstatin (each at 0.1 mg/ml). Digestions were in 0.1 M NH4 acetate at pH 4.5 or Na2HPO4, pH 6.0 or 7.0. After 4 hours at 37°C, the reactions were separated by Tris-tricine SDS-PAGE and stained with Coomassie Blue. (b) Cleavage sites: TTCF digestion products were separated by SDS PAGE and electrophoretically transferred to nitrocellulose membrane. Individual fragments numbered 1-6 were subjected to 5 cycles of Edman degradation. N-terminal sequence obtained is shown in bold following upstream residues from TTCF (tetanus toxin numbering). […] (c) Each fraction was analysed by SDS-PAGE and Western blotting. […] Release of 7-amino-4-methyl coumarin was measured after 10, 20 or 30 minutes. […] At different times the cells were washed, fixed in 0.05 % glutaraldehyde and antigen presentation measured using proliferation of different autologous TTCF-specific T cell clones. c, AEP pre-processing of TTCF speeds antigen presentation. […] Presentation was measured after 60 minutes of antigen pulsing using EBV B cells. […]

[2] = target: T2, asparaginyl endopeptidase activity (Homo sapiens, UniProt Q99538); assay: Cleavage of Z-Ala-Ala-Asn-NHMec by Mono-S fractions of B cell lysosome extract; type: biochemical; conditions: presence or absence of E64
T2 construct: We next partially purified the TTCF processing activity from a crude B cell lysosome fraction; endogenous in cells; host or cells: human B cell line EDR; membrane pellet solubilised in citrate/CHAPS, Mono-S cation-exchange fractions
T2 sequence (Q99538 26-323 limits assumed): T1 sequence (Q99538 26-323 limits assumed)
Description: as §1

[3] = target: T3, disrupted lysosomes isolated from the human B cell line EDR (TTCF processing activity) (Homo sapiens, UniProt Q99538); assay: Digestion of TTCF by disrupted B cell lysosomes, SDS-PAGE readout; type: biochemical; conditions: inhibitor at 0.1 mg/ml; pH 4.5; 4 hours at 37°C; Fig 1a
T3 construct: disrupted lysosomes isolated from the human B cell line EDR; endogenous in cells; host or cells: human B cell line EDR, Percoll-gradient lysosomal fraction, disrupted
T3 sequence (Q99538 26-323 limits assumed): T1 sequence (Q99538 26-323 limits assumed)
Description: The invention will now be described by reference to the following Examples and Figures wherein • Figure 1: Processing of TTCF by a leupeptin-insensitive cysteine endopeptidase activity. (a) TTCF was digested in vitro in the presence of disrupted lysosomes (1-2 µg) in the presence or absence of iodoacetamide (1 mM), leupeptin, E64 or pepstatin (each at 0.1 mg/ml). Digestions were in 0.1 M NH4 acetate at pH 4.5 or Na2HPO4, pH 6.0 or 7.0. After 4 hours at 37°C, the reactions were separated by Tris-tricine SDS-PAGE and stained with Coomassie Blue. (b) Cleavage sites: TTCF digestion products were separated by SDS PAGE and electrophoretically transferred to nitrocellulose membrane. Individual fragments numbered 1-6 were subjected to 5 cycles of Edman degradation. N-terminal sequence obtained is shown in bold following upstream residues from TTCF (tetanus toxin numbering). The N-terminal sequence of His-tagged TTCF was obtained for fragments 1 and 3. (c) Residues Asn 1184 and Glu 1184 in TTCF were mutated to alanine (see Methods) and digestions performed as before. The mutation abolishes cleavage at the mutated site but not at the first site (doublet at 47 kD). In this experiment cleavage of the third site was minimal. • Figure 2: TTCF is processed by an asparaginyl endopeptidase. (a) Chromatography of the TTCF processing activity on Mono-S resin. Fractions eluted by NaCl gradient were incubated with the substrates Z-Ala-Ala-Asn-NHMec or Z-Phe-Arg-NHMec in the presence or absence of E64 (trans-epoxysuccinyl-L-leucylamido-(4-guanidino)butane). […] (b) Fractions as above were incubated with 10 µg TTCF in the presence or absence of E64 for 4 hours at 37°C prior to SDS-PAGE analysis. (c) Each fraction was analysed by SDS-PAGE and Western blotting. Electrophoretically transferred material was probed with an affinity purified antiserum raised against the peptide KGIGSGKVLKSGPQC from human legumain^1. • Figure 3: Peptide inhibitors of AEP block asparaginyl endopeptidase activity and TTCF processing in vitro and in vivo. (a) TTCF was digested with purified AEP (legumain from pig kidney) in the presence or absence of 0.2 mg/ml of the peptides indicated. […] (b) Purified AEP or a crude lysosomal protease mixture were incubated with Z-Ala-Ala-Asn-NHMec, Z-Phe-Arg-NHMec (cathepsins L&B) or Z-Val-Val-Ala NHMec (cathepsin S) in the presence of increasing concentrations of AENK or AEQK. Release of 7-amino-4-methyl coumarin was measured after 10, 20 or 30 minutes. […] At different times the cells were washed, fixed in 0.05 % glutaraldehyde and co-cultured with autologous TTCF specific T cell clones. […] Proteins obtained from commercial sources, as described in the literature or custom peptides were digested with purified pig kidney legumain at pH 5.5 in the presence of 1 mM DTT. […] When present peptide was maintained during antigen pulsing at 1 mg/ml (a) or 2 mg/ml (b). At different times the cells were washed, fixed in 0.05 % glutaraldehyde and antigen presentation measured using proliferation of different autologous TTCF-specific T cell clones. c, AEP pre-processing of TTCF speeds antigen presentation. […] Presentation was measured after 60 minutes of antigen pulsing using EBV B cells.
[…]. […] Nor could we reproduce the lysosomal TTCF digestion pattern or indeed generate any of these fragments using purified cathepsins L, S, B, D or E , all of which have been implicated in the class II MHC antigen processing pathway (reviewed in refs 5 & 6).
TTCF processing activity. Lysosomal fractions from the human B cell line EDR were prepared on 27 % Percoll density gradients as previously described^8 using ^125I-labelled transferrin (internalised for 30 minutes at 37°C) and β-hexosaminidase to identify endosomal/plasma membrane and lysosomal fractions respectively. The peak of lysosomes was collected by centrifugation at 40,000 g for 1 hour, removed from the underlying Percoll pellet, collected again at 50,000 g for 1 hour and stored frozen. […]

[4] = tested on: cathepsin L and/or B; assay: Cleavage of Z-Phe-Arg-NHMec by Mono-S fractions of B cell lysosome extract; type: biochemical, human; conditions: presence or absence of E64, Fig 2a
Description: as §1

[5] = tested on: purified AEP (legumain from pig kidney); assay: Digestion of TTCF with purified AEP in the presence of tetrapeptides; type: biochemical; conditions: 0.2 mg/ml peptide; Fig 3a
Description: The invention will now be described by reference to the following Examples and Figures wherein • Figure 1: Processing of TTCF by a leupeptin-insensitive cysteine endopeptidase activity. (a) TTCF was digested in vitro in the presence of disrupted lysosomes (1-2 µg) in the presence or absence of iodoacetamide (1 mM), leupeptin, E64 or pepstatin (each at 0.1 mg/ml). Digestions were in 0.1 M NH4 acetate at pH 4.5 or Na2HPO4, pH 6.0 or 7.0. After 4 hours at 37°C, the reactions were separated by Tris-tricine SDS-PAGE and stained with Coomassie Blue. (b) Cleavage sites: TTCF digestion products were separated by SDS PAGE and electrophoretically transferred to nitrocellulose membrane. Individual fragments numbered 1-6 were subjected to 5 cycles of Edman degradation. N-terminal sequence obtained is shown in bold following upstream residues from TTCF (tetanus toxin numbering). The N-terminal sequence of His-tagged TTCF was obtained for fragments 1 and 3. (c) Residues Asn 1184 and Glu 1184 in TTCF were mutated to alanine (see Methods) and digestions performed as before. The mutation abolishes cleavage at the mutated site but not at the first site (doublet at 47 kD). In this experiment cleavage of the third site was minimal. • Figure 2: TTCF is processed by an asparaginyl endopeptidase. (a) Chromatography of the TTCF processing activity on Mono-S resin. Fractions eluted by NaCl gradient were incubated with the substrates Z-Ala-Ala-Asn-NHMec or Z-Phe-Arg-NHMec in the presence or absence of E64 (trans-epoxysuccinyl-L-leucylamido-(4-guanidino)butane). […] (b) Fractions as above were incubated with 10 µg TTCF in the presence or absence of E64 for 4 hours at 37°C prior to SDS-PAGE analysis. (c) Each fraction was analysed by SDS-PAGE and Western blotting. Electrophoretically transferred material was probed with an affinity purified antiserum raised against the peptide KGIGSGKVLKSGPQC from human legumain^1. • Figure 3: Peptide inhibitors of AEP block asparaginyl endopeptidase activity and TTCF processing in vitro and in vivo. […] Release of 7-amino-4-methyl coumarin was measured after 10, 20 or 30 minutes. […] At different times the cells were washed, fixed in 0.05 % glutaraldehyde and antigen presentation measured using proliferation of different autologous TTCF-specific T cell clones. c, AEP pre-processing of TTCF speeds antigen presentation. […] Presentation was measured after 60 minutes of antigen pulsing using EBV B cells.
We decided to test the possibility that high concentrations of asparagine containing peptides might act as competitive inhibitors. […] To establish that inhibition of AEP was specific, we measured the hydrolysis of different synthetic peptide substrates in the presence and absence of these tetrapeptides.

CC(C)C[C@H](NC(=O)[C@H]1O[C@@H]1C(=O)O)C(=O)NCCCCNC(=N)N [E64, trans-epoxysuccinyl-L-leucylamido-(4-guanidino)butane]
effect on TTCF processing activity [1]: unaffected
effect on cleavage of Z-Ala-Ala-Asn-NHMec [2]: no inhibitory effect; also recorded: unaffected
inhibition of lysosomal digestion of TTCF [3]: could not inhibit
inhibition of activity cleaving Z-Phe-Arg-NHMec [4]: completely inhibited

NCCCC[C@H](NC(=O)OCC1c2ccccc2-c2ccccc21)C(=O)N[C@@H](CC(N)=O)C(=O)N[C@@H](CC(N)=O)C(=O)N[C@@H](CCC(=O)O)C(N)=O [KNNE, Lys-Asn-Asn-Glu-NH] (Fmoc-KNNE-NH2)
inhibition of processing of TTCF by AEP [5]: also inhibited but was less effective
